Laboratory results as given in patent US20250179059A1 (The Regents of the University of California, priority 2021, published 2025).

Key:
[1] = system: human SKM-1 acute myeloid leukemia cells; assay: SKM-1 antiproliferation cell-based assay (ATPlite); conditions: Homo sapiens, SKM-1, 96 h, SKM-1 antiproliferation assay, 4 days, Table C2
Outline: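 Log-phase cells in RPMI 1640/15% FBS were seeded at 34722 cells/mL and exposed for 4 days to nine-concentration DMSO serial dilutions in triplicate. Viability was read as ATP luminescence (ATPlite 1step), and IC50 values came from variable-slope non-linear regression.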

[2] = molecular target: T1, human BRD4 bromodomain II (Homo sapiens, UniProt O60885); assay: Bromodomain binding assay (AlphaScreen), BRD4 BDII; conditions: AlphaScreen assay, Table C2; read-out: BRD4 BDII IC50
T1 construct: human BRD4 bromodomain II [based on Genbank NM_058243, residues 349-460]; host or cells: E. coli
Outline: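 Read-out is AlphaScreen signal (ex 680 nm, em 520-620 nm) from streptavidin donor beads on a biotinylated acetylated histone H4 (aa 1-21) peptide and nickel acceptor beads on the His6-tagged bromodomain. IC50 values come from curve fits of percentage peptide binding against compound concentration.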

Row | GI50 [1] [nM] | IC50 [2] [nM] | SMILES
1 | 0.3 to 30 | 1 to 10 | CN(C)[C@H]1CCCN(c2cc(-c3cc(F)cc(-c4ccc(-n5ccn(C)c5=O)c(Cl)c4)c3O)ccn2)C1 [Example 457, (S)-1-(3-chloro-3′-(2-(3-(dimethylamino)piperidin-1-yl)pyridin-4-yl)-5′-fluoro-2′-hydroxy-[1,1′-biphenyl]-4-yl)-3-methyl-1H-imidazol-2(3H)-one]
2 | 0.3 to 30 | 1 to 10 | CN1CCN(c2ccc(-c3cc(F)cc(-c4cc(N5CCNCC5)c5cn[nH]c5c4)c3O)cc2Cl)C1=O [Example 458, 1-(3-chloro-5′-fluoro-2′-hydroxy-3′-(4-(piperazin-1-yl)-1H-indazol-6-yl)-[1,1′-biphenyl]-4-yl)-3-methylimidazolidin-2-one]
3 | 0.3 to 30 | 1 to 10 | Cn1ccn(-c2ccc(-c3cc(F)cc(-c4cncc(N5CCC(N)CC5)c4)c3O)cc2Cl)c1=O [Example 459, 1-(3′-(5-(4-aminopiperidin-1-yl)pyridin-3-yl)-3-chloro-5′-fluoro-2′-hydroxy-[1,1′-biphenyl]-4-yl)-3-methyl-1H-imidazol-2(3H)-one]
4 | 0.3 to 30 | 1 to 10 | CN1CCN(c2ccc(-c3cc(F)cc(-c4cc(N5CCNCC5)c5cc[nH]c5c4)c3O)cc2Cl)C1=O [Example 460, 1-(3-chloro-5′-fluoro-2′-hydroxy-3′-(4-(piperazin-1-yl)-1H-indol-6-yl)-[1,1′-biphenyl]-4-yl)-3-methylimidazolidin-2-one]
5 | 0.3 to 30 | 0.01 to 1 | Cn1ccn(-c2ccc(-c3cc(F)cc(-c4cncc(N5CCC[C@H](N)C5)c4)c3O)cc2Cl)c1=O [Example 461, (S)-1-(3′-(5-(3-aminopiperidin-1-yl)pyridin-3-yl)-3-chloro-5′-fluoro-2′-hydroxy-[1,1′-biphenyl]-4-yl)-3-methyl-1,3-dihydro-2H-imidazol-2-one]
6 | 30 to 300 | 1 to 10 | Cn1ncn(-c2ccc(-c3cc(F)cc(-c4ccnc(N5CCNCC5)c4)c3O)cc2Cl)c1=O [Example 462, 4-(3-chloro-5′-fluoro-2′-hydroxy-3′-(2-(piperazin-1-yl)pyridin-4-yl)-[1,1′-biphenyl]-4-yl)-1-methyl-1H-1,2,4-triazol-5(4H)-one]
7 | 30 to 300 | 0.01 to 1 | Cn1ccn(-c2ccc(-c3cc(F)cc(-c4ccnc(N5CCNCC5=O)c4)c3O)cc2Cl)c1=O [Example 463, 1-(4-(3′-chloro-5-fluoro-2-hydroxy-4′-(3-methyl-2-oxo-2,3-dihydro-1H-imidazol-1-yl)-[1,1′-biphenyl]-3-yl)pyridin-2-yl)piperazin-2-one]
8 | 30 to 300 | 0.01 to 1 | [2H]C([2H])([2H])n1ccn(-c2ccc(-c3cc(F)cc(-c4ccnc(N5CCNCC5=O)c4)c3O)cc2Cl)c1=O [Example 464, 1-(4-(3′-chloro-5-fluoro-2-hydroxy-4′-(3-deuteromethyl-2-oxo-2,3-dihydro-1H-imidazol-1-yl)-[1,1′-biphenyl]-3-yl)pyridin-2-yl)piperazin-2-one]
9 | 0.3 to 30 | 0.01 to 1 | CN1CCN(c2cncc(-c3cc(F)cc(-c4ccc(-n5ccn(C)c5=O)c(Cl)c4)c3O)c2)CC1 [Example 465, 1-(3-chloro-5′-fluoro-2′-hydroxy-3′-(5-(4-methylpiperazin-1-yl)pyridin-3-yl)-[1,1′-biphenyl]-4-yl)-3-methyl-1H-imidazol-2(3H)-one]
10 | 0.3 to 30 | 0.01 to 1 | [2H]C([2H])([2H])n1ccn(-c2ccc(-c3cc(F)cc(-c4ccnc(N5CC[C@H](NC)C5)c4)c3O)cc2Cl)c1=O [Example 466, (S)-1-(3-chloro-5′-fluoro-2′-hydroxy-3′-(2-(3-(methylamino)pyrrolidin-1-yl)pyridin-4-yl)-[1,1′-biphenyl]-4-yl)-3-(deuteromethyl)-1H-imidazol-2(3H)-one]
11 | 0.3 to 30 | 0.01 to 1 | C[C@@H]1CN(c2cncc(-c3cc(F)cc(-c4ccc(-n5ccn(C)c5=O)c(Cl)c4)c3O)c2)CCN1 [Example 467, (R)-1-(3-chloro-5′-fluoro-2′-hydroxy-3′-(5-(3-methylpiperazin-1-yl)pyridin-3-yl)-[1,1′-biphenyl]-4-yl)-3-methyl-1H-imidazol-2(3H)-one]
12 | 300 to 3000 | 1 to 10 | O=c1n(-c2ccc(-c3cc(F)cc(-c4ccnc(N5CCNCC5)c4)c3O)cc2Cl)ccn1C(F)F [Example 468, 1-(3-chloro-5′-fluoro-2′-hydroxy-3′-(2-(piperazin-1-yl)pyridin-4-yl)-[1,1′-biphenyl]-4-yl)-3-(difluoromethyl)-1H-imidazol-2(3H)-one]
13 | 0.3 to 30 | 0.01 to 1 | CCN1CCN(c2cc(-c3cc(F)cc(-c4ccc(-n5ccn(C)c5=O)c(Cl)c4)c3O)ccn2)CC1 [Example 469, 1-(3-chloro-3′-(2-(4-ethylpiperazin-1-yl)pyridin-4-yl)-5′-fluoro-2′-hydroxy-[1,1′-biphenyl]-4-yl)-^3-methyl-1H-imidazol-2(3H)-one]
14 | 0.3 to 30 | 1 to 10 | Cn1ccn(-c2ccc(-c3cc(F)cc(-c4ccnc(N5CCN(CC6CC6)CC5)c4)c3O)cc2Cl)c1=O [Example 470, 1-(3-chloro-3′-(2-(4-(cyclopropylmethyl)piperazin-1-yl)pyridin-4-yl)-5′-fluoro-2′-hydroxy-[1,1′-biphenyl]-4-yl)-3-methyl-1H-imidazol-2(3H)-one]
15 | 0.3 to 30 | 0.01 to 1 | Cn1ccn(-c2ccc(-c3cc(F)cc(-c4ccnc(N5CCN(CCO)CC5)c4)c3O)cc2Cl)c1=O [Example 471, 1-(3-chloro-5′-fluoro-2′-hydroxy-3′-(2-(4-(2-hydroxyethyl)piperazin-1-yl)pyridin-4-yl)-[1,1′-biphenyl]-4-yl)-3-methyl-1H-imidazol-2(3H)-one]
16 | 0.3 to 30 | 1 to 10 | Cn1ccn(-c2ccc(-c3cc(F)cc(-c4cncc(N5CCNCC5)c4)c3O)cc2Cl)c1=O [Example 472, 1-(3-chloro-5′-fluoro-2′-hydroxy-3′-(5-(piperazin-1-yl)pyridin-3-yl)-[1,1′-biphenyl]-4-yl)-^3-methyl-1H-imidazol-2(3H)-one]
17 | 0.3 to 30 | 1 to 10 | O=c1sccn1-c1ccc(-c2cc(F)cc(-c3ccnc(N4CCNCC4)c3)c2O)cc1Cl [Example 473, 3-(3-chloro-5′-fluoro-2′-hydroxy-3′-(2-(piperazin-1-yl)pyridin-4-yl)-[1,1′-biphenyl]-4-yl)thiazol-2(3H)-one]
18 | 0.3 to 30 | 0.01 to 1 | C[C@@H]1CN(c2cncc(-c3cc(F)cc(-c4ccc(-n5ccn(C)c5=O)c(Cl)c4)c3O)c2)CCN1C [Example 474, (R)-1-(3-chloro-3′-(5-(3,4-dimethylpiperazin-1-yl)pyridin-3-yl)-5′-fluoro-2′-hydroxy-[1,1′-biphenyl]-4-yl)-3-methyl-1H-imidazol-2(3H)-one]
19 | 0.3 to 30 | 0.01 to 1 | CN(C)[C@H]1CCN(c2cncc(-c3cc(F)cc(-c4ccc(-n5ccn(C)c5=O)c(Cl)c4)c3O)c2)C1 [Example 475, (S)-1-(3-chloro-3′-(5-(3-(dimethylamino)pyrrolidin-1-yl)pyridin-3-yl)-5′-fluoro-2′-hydroxy-[1,1′-biphenyl]-4-yl)-3-methyl-1H-imidazol-2(3H)-one]
